Source: patent publication US9217014B2, “Antifungal agents and uses thereof” (Cidara Therapeutics, Inc., priority 2011, dated 2015)
Read-outs that look alike come from different tables or passages of the source.

Tests used:
[1] = Pharmacokinetics in beagle dogs, intravenous; format: in vivo; settings: for Vd / half-life: dog
Method: The test articles were administered to beagle dogs weighing approximately 6-10 kg. Each test article was dosed at 1.4 mg/kg in aqueous saline (with or without 0.5% Tween) over course of 1-10 minutes. […] The dogs were fasted at least 12 hours prior to each dosing and offered food after the 4-hour blood sample was taken; water was withheld for 1 hour prior to and 4 hours following each dosing event. The dose for each animal was based on its most recent body weight. The test article was injected intravenously via a catheter placed in the cephalic vein as a slow bolus.
Blood was collected via the jugular vein. All blood samples (˜1 mL each) were collected into K3EDTA tubes. Following blood collection, the samples were immediately inverted several times and were held on wet ice pending centrifugation. The samples were centrifuged within ˜30 minutes of collection under refrigeration (˜5° C. for ˜10 minutes at ˜2000 g) to obtain plasma. The plasma was frozen immediately on dry ice after separation. The plasma samples were stored at approximately −70° C. until analysis.
Plasma (100 μL) was precipitated with 400 μL of 0.1% formic acid in acetonitrile containing the internal standard (100 ng/mL pneumocandin). The samples were then capped and vortexed for about 30 seconds followed by centrifugation at 14,000 rpm at room temperature for 10 minutes. Following centrifugation 200 μL of supernatant was transferred to plastic autosampler vials containing 200 μL of 0.1% formic acid in water and vortexed. Samples were then analyzed by LCMSMS.
All pharmacokinetic calculations were performed using WinNonlin version 4.1 (Pharsight Corp) by noncompartmental analysis.

C. albicans R303 = experiment: mouse candidiasis infection model, IP administration, kidney fungal burden; format: in vivo; settings: for log reduction at 0.5 mg/kg / log reduction at 1.5 mg/kg / log reduction at 4.5 mg/kg: Candida albicans, R303, ip, 24 h, read-out: Difference from 24-h control; for Mean log10 CFU/kidneys (±SEM): kidneys 24 h after infection; for overall performance in reducing C. albicans CFUs in the kidneys of the mice: conclusion over all runs
Method: The objective of these studies was to evaluate the efficacy of test compounds in the mouse candidiasis infection model. Amounts of test articles are uncorrected.
The strain, C. albicans R303 was transferred from frozen storage onto Sabauroud dextrose agar (SDA) plates and grown for ˜24 hr at 35° C. The inoculum was prepared by transferring colonies from the plate to phosphate buffered saline (PBS) and the concentration adjusted to approximately 10^6 CFU/mL with the aid of a spectrophotometer. The stock was diluted 1:9 to prepare the inoculum. Prior to each run the concentration was verified using the dilution plate count method.
Female CD-1 mice were used in this study. The animals were approximately seven-weeks-old at the start of the study and weighed about 15-30 g.
Mice were made neutropenic with IP injections of cyclophosphamide (150 mg/kg in 10 mL/kg) at 4 and 1 day before inoculation. Each animal was inoculated with the appropriate concentration by injecting 0.1 mL of inoculum into a tail vein. The test compounds were administered IP at 2 hr after infection.
In a typical procedure, the kidneys were collected from four mice in control group 1 (untreated) at 2 hr after infection, and from another four mice in control group 2 (untreated) at 24 hr after infection. Kidneys were removed aseptically from each mouse and were combined in a sterile tube. An aliquot (2 mL) of sterile PBS was added to each tube and the contents homogenized with a tissue homogenizer (Polytron 3100). Serial dilutions of the tissue homogenates were conducted and 0.1 mL aliquots were spread on SDA plates and the plates incubated at 35° C. overnight. The CFU/kidneys were determined from colony counts. Data were analyzed using one-way ANOVA with either the Tukey-Kramer Multiple Comparisons Test or Dunnett Test (GraphPad InStat version 3.06, GraphPad Software, San Diego, Calif.).
The data reported below are the average of four mice. Each run included a separate control and each is tabulated separately.

SMILES	overall performance in reducing C. albicans CFUs in the kidneys of the mice (C. albicans R303)	log reduction at 0.5 mg/kg (C. albicans R303; Fourth run, IP 0.5 mg/kg)	log reduction at 1.5 mg/kg (C. albicans R303; Fourth run, IP 1.5 mg/kg)	Mean log10 CFU/kidneys (±SEM) (C. albicans R303; Fourth run, IP 0.5 mg/kg)	Mean log10 CFU/kidneys (±SEM) (C. albicans R303; Fourth run, IP 1.5 mg/kg)	log reduction at 0.5 mg/kg (C. albicans R303; Third run, IP 0.5 mg/kg)	log reduction at 1.5 mg/kg (C. albicans R303; Third run, IP 1.5 mg/kg)	log reduction at 4.5 mg/kg (C. albicans R303; Third run, IP 4.5 mg/kg)	Mean log10 CFU/kidneys (±SEM) (C. albicans R303; Third run, IP 0.5 mg/kg)	Mean log10 CFU/kidneys (±SEM) (C. albicans R303; Third run, IP 1.5 mg/kg)	Mean log10 CFU/kidneys (±SEM) (C. albicans R303; Third run, IP 4.5 mg/kg)	other results
CCCCCOc1ccc(-c2ccc(-c3ccc(C(=O)N[C@H]4C[C@@H](O)C(OCCOCCN)NC(=O)C5[C@@H](O)[C@@H](C)CN5C(=O)C([C@@H](C)O)NC(=O)C([C@H](O)[C@@H](O)c5ccc(O)cc5)NC(=O)C5C[C@@H](O)CN5C(=O)C([C@@H](C)O)NC4=O)cc3)cc2)cc1 (stereo partly shown) [compound 5]	performed strongly											Vd ([1]; beagle, in vivo, iv, 1.4 mg/kg): 0.627 ± 0.0139 L/kg; half-life ([1]; beagle, in vivo, iv, 1.4 mg/kg): 33.7 ± 3.28 h; log reduction at 0.5 mg/kg (C. albicans R303; Second run, IP 0.5 mg/kg): 1.22; log reduction at 1.5 mg/kg (C. albicans R303; Second run, IP 1.5 mg/kg): 4.15; log reduction at 4.5 mg/kg (C. albicans R303; Second run, IP 4.5 mg/kg): 4.87; Mean log10 CFU/kidneys (±SEM) (C. albicans R303; Second run, IP 0.5 mg/kg): 3.65 ± 0.10 log10 CFU/kidneys; Mean log10 CFU/kidneys (±SEM) (C. albicans R303; Second run, IP 1.5 mg/kg): 0.73 ± 0.42 log10 CFU/kidneys; Mean log10 CFU/kidneys (±SEM) (C. albicans R303; Second run, IP 4.5 mg/kg): 0.00 ± 0.00 log10 CFU/kidneys
CCCCCOc1ccc(-c2ccc(-c3ccc(C(=O)N[C@H]4C[C@@H](O)C(NCCN)NC(=O)C5[C@@H](O)[C@@H](C)CN5C(=O)C([C@@H](C)O)NC(=O)C([C@H](O)[C@@H](O)c5ccc(O)cc5)NC(=O)C5C[C@@H](O)CC5C(=O)C([C@@H](C)O)NC4=O)cc3)cc2)cc1 (stereo partly shown) [compound 15]	performed strongly	3.01	3.81	2.09 ± 0.16 log10 CFU/kidneys	1.29 ± 0.18 log10 CFU/kidneys							log reduction at 0.5 mg/kg (C. albicans R303; Second run, IP 0.5 mg/kg): 3.63; log reduction at 1.5 mg/kg (C. albicans R303; Second run, IP 1.5 mg/kg): 3.91; log reduction at 4.5 mg/kg (C. albicans R303; Second run, IP 4.5 mg/kg): 4.15; Mean log10 CFU/kidneys (±SEM) (C. albicans R303; Second run, IP 0.5 mg/kg): 1.25 ± 0.45 log10 CFU/kidneys; Mean log10 CFU/kidneys (±SEM) (C. albicans R303; Second run, IP 1.5 mg/kg): 0.96 ± 0.57 log10 CFU/kidneys; Mean log10 CFU/kidneys (±SEM) (C. albicans R303; Second run, IP 4.5 mg/kg): 0.73 ± 0.42 log10 CFU/kidneys
CCCCCOc1ccc(-c2ccc(-c3ccc(C(=O)N[C@H]4C[C@@H](O)C(NCCNCCN)NC(=O)C5[C@@H](O)[C@@H](C)CN5C(=O)C([C@@H](C)O)NC(=O)C([C@H](O)[C@@H](O)c5ccc(O)cc5)NC(=O)C5C[C@@H](O)CC5C(=O)C([C@@H](C)O)NC4=O)cc3)cc2)cc1 (stereo partly shown) [compound 17]	performed strongly	1.64	3.91	3.46 ± 0.06 log10 CFU/kidneys	1.19 ± 0.12 log10 CFU/kidneys							
CCCCCOc1ccc(-c2ccc(-c3ccc(C(=O)N[C@H]4C[C@@H](O)C(NCCNCCO)NC(=O)C5[C@@H](O)[C@@H](C)CN5C(=O)C([C@@H](C)O)NC(=O)C([C@H](O)[C@@H](O)c5ccc(O)cc5)NC(=O)C5C[C@@H](O)CC5C(=O)C([C@@H](C)O)NC4=O)cc3)cc2)cc1 (stereo partly shown) [compound 18]	performed strongly	2.56	3.95	2.54 ± 0.17 log10 CFU/kidneys	1.15 ± 0.09 log10 CFU/kidneys							CI ([1]; 1.4 mg/kg intravenous slow bolus, mean ± SEM, n = 4 beagle dogs): 0.377 ± 0.018 mL/min/kg; half-life ([1]; plasma, 1.4 mg/kg intravenous slow bolus, mean ± SEM, n = 4 beagle dogs, read-out: T ½ (converted)): 21 ± 1.16 h; Vd ([1]; plasma, 1.4 mg/kg intravenous slow bolus, mean ± SEM, n = 4 beagle dogs, read-out: Vz): 0.687 ± 0.0584 L/kg
CCC(C)CC(C)CCCCCCCCC(=O)N[C@H]1C[C@@H](O)C(NCCOCCOCCN)NC(=O)C2[C@@H](O)CCN2C(=O)C([C@H](O)CCN)NC(=O)C([C@H](O)[C@@H](O)c2ccc(O)cc2)NC(=O)C2C[C@@H](O)CC2C(=O)C([C@@H](C)O)NC1=O (stereo partly shown) [compound 19]	performed strongly					2.19	3.47	4.03	3.01 ± 0.07 log10 CFU/kidneys	1.74 ± 0.18 log10 CFU/kidneys	1.17 ± 0.40 log10 CFU/kidneys	
CCC(C)CC(C)CCCCCCCCC(=O)N[C@H]1C[C@@H](O)C(NCCOCCN)NC(=O)C2[C@@H](O)CCN2C(=O)C([C@H](O)CCN)NC(=O)C([C@H](O)[C@@H](O)c2ccc(O)cc2)NC(=O)C2C[C@@H](O)CC2C(=O)C([C@@H](C)O)NC1=O (stereo partly shown) [compound 20]	performed strongly					3.25	4.48	3.75	1.96 ± 0.18 log10 CFU/kidneys	0.73 ± 0.42 log10 CFU/kidneys	1.45 ± 0.09 log10 CFU/kidneys	
CCC(C)CC(C)CCCCCCCCC(=O)N[C@H]1C[C@@H](O)C(NCCNCCO)NC(=O)C2[C@@H](O)CCN2C(=O)C([C@H](O)CCN)NC(=O)C([C@H](O)[C@@H](O)c2ccc(O)cc2)NC(=O)C2C[C@@H](O)CC2C(=O)C([C@@H](C)O)NC1=O (stereo partly shown) [compound 21]	performed strongly					3.63	4.48	4.03	1.57 ± 0.16 log10 CFU/kidneys	0.73 ± 0.42 log10 CFU/kidneys	1.17 ± 0.40 log10 CFU/kidneys	
CCC(C)CC(C)CCCCCCCCC(=O)N[C@H]1C[C@@H](O)C(NCCNCCN)NC(=O)C2[C@@H](O)CCN2C(=O)C([C@H](O)CCN)NC(=O)C([C@H](O)[C@@H](O)c2ccc(O)cc2)NC(=O)C2C[C@@H](O)CC2C(=O)C([C@@H](C)O)NC1=O (stereo partly shown) [compound 22]	performed strongly					3.56	5.2	4.55	1.65 ± 0.16 log10 CFU/kidneys	0.00 ± 0.00 log10 CFU/kidneys	0.65 ± 0.38 log10 CFU/kidneys	
